Read-outs that look alike come from different tables or passages of the source.
Tests used:
[1] = system: KRAS G12C-dependent Ba/F3 cells; assay: Ba/F3 proliferation assay, KRAS G12C; format: cell-based; details: Mus musculus, BaF3, 72 h, AlamarBlue
Method: (§1) Plasmids containing KRASG12 mutants (i.e. […], G12C, G12V) are obtained from GeneScript. To generate KRASG12-dependent Ba/F3 models, Ba/F3 cells are transduced with retroviruses containing vectors that harbor KRASG12 isoforms. Platinum-E cells (Cell Biolabs) are used for retrovirus packaging. Retrovirus is added to Ba/F3 cells. To ensure infection, 4 μg/mL polybrene is added and cells are spinfected. […] Cells with an infection efficiency of 10% to 20% are further cultivated and puromycin selection with 1 μg/mL is initiated. As a control, parental Ba/F3 cells are used to show selection status. Selection is considered successful when parental Ba/F3 cells cultures died. To evaluate the transforming potential of KRASG12 mutations, the growth medium is no longer supplemented with IL-3. Ba/F3 cells harboring the empty vector are used as a control. Approximately ten days before conducting the experiments, puromycin is left out.
(§2) Compounds are added using an Access Labcyte Workstation with a Labcyte Echo 550 or 555 accoustic dispenser. All treatments are performed in technical duplicates. […] AlamarBlue™ (ThermoFisher), a viability stain, is added and fluorescence measured in the PerkinElmer Envision HTS Multilabel Reader. The raw data are imported into and analyzed with the Boehringer Ingelheim proprietary software MegaLab (curve fitting based on the program PRISM, GraphPad Inc.).

[2] = Metabolic (microsomal) stability assay, human liver microsomes (HLM); format: in vitro ADME; details: predicted clearance as percent of liver blood flow, 1 μM
Method: The metabolic degradation of the test compound is assayed at 37° C. with pooled liver microsomes (mouse (MLM), rat (RLM) or human (HLM)). The final incubation volume of 48 μL pertime point contains TRIS buffer (pH 7.5; 0.1 M), magnesium chloride (6.5 mM), microsomal protein (0.5 mg/mL for mouse/rat, 1 mg/mL for human specimens) and the test compound at a final concentration of 1 μM. Following a short preincubation period at 37° C., the reactions are initiated by addition of 12 μL beta-nicotinamide adenine dinucleotide phosphate, reduced form (NADPH, 10 mM) and terminated by transferring an aliquot into solvent after different time points (0, 5, 15, 30, 60 min). Additionally, the NADPH-independent degradation is monitored in incubations without NADPH, terminated at the last time point by addition of acetonitrile. The quenched incubations are pelleted by centrifugation (4,000 rpm, 15 min). An aliquot of the supernatant is assayed by LC-MS/MS to quantify the concentration of parent compound in the individual samples.
In vitro intrinsic clearance (CLint, in vitro) is calculated from the time course of the disappearance of the test drug during the microsomal incubation. Each plot is fitted to the first-order elimination rate constant as C(t)═C0*exp(−ke*t), where C(t) and C0 are the concentration of unchanged test drug at incubation time t and that at preincubation and ke is the disappearance rate constant of the unchanged drug. Subsequently, CLint in vitro (μL min^−1·amount protein) values are converted to predicted CLint,in vivo (mL min^−1 kg^−1) from incubation parameters according to the equation CLint, in vivo=CLint, in vitro×(incubation volume (ml)/amount protein (mg))×(amount protein (mg)/g liver tissue)×(liver weight/body wt.).
For better across species comparison the predicted clearance is expressed as percent of the liver blood flow [% QH] (mL min^−1·kg^−1) in the individual species. In general, high stability (corresponding to low % QH) of the compounds across species is desired.

[3] = system: KRAS G12D-dependent Ba/F3 cells; assay: Ba/F3 proliferation assay, KRAS G12D; format: cell-based; details: Mus musculus, BaF3, 72 h, AlamarBlue
Method: as §1, §2

NCI-H358 cells = assay: NCI-H358 CTG proliferation assay (120 h) (NSCLC, G12C); format: cell-based, human; details: Homo sapiens
Method: NCI-H358 CTG Proliferation Assay (120 h) (NSCLC, G12C)
NCI-H358 cells (ATCC No. CRL-5807) are dispensed into white bottom opaque 96 well plates (Perkin Elmer cat no. 5680) at a density of 2000 cells per well in 100 μL RPMI-1640 ATCC-Formulation (Gibco #A10491)+10% FCS (fetal calf serum) (assay 1) or into black 384-well plates, flat and clear bottom (Greiner, PNr. 781091) at a density of 200 cells per well in 60 μl RPMI-1640 ATCC-Formulation (Gibco #A10491)+10% FCS (fetal calf serum) (assay 2). […] Compounds (10 mM stock in DMSO) are added at logarithmic dose series using the HP Digital Dispenser D300 (Tecan) (assay 1) or the ECHO acoustic liquid handler system (Beckman Coulter) (assay 2), normalizing for added DMSO and including DMSO controls. For the TO time point measurement, untreated cells are analyzed at the time of compound addition. Plates are incubated for 120 h, and cell viability is measured using CellTiter-Glo luminescent cell viability reagent (Promega product code G7570). Viability (stated as percent of control) is defined as relative luminescence units RLU of each well divided by the RLU of cells in DMSO controls. IC50 values are determined from viability measurements by non-linear regression using a four parameter model.

LOVO cells = assay: LOVO CTG proliferation assay (120 h) (CRC, G13D); format: cell-based; details: Homo sapiens, CTG 120 h
Method: LOVO CTG Proliferation Assay (120 h) (CRC, G13D)
LOVO cells (ATCC CCL-229) are dispensed into 384-well plates, flat and clear bottom (Greiner, PNr. 781091) at a density of 1000 cells per well in 60 μL DMEM (Sigma D6429)+10% Fetal Calf Serum (HyClone, PNr.: SH30084.03) and incubated at 37° C. in a CO2 incubator overnight. The next day, compounds (10 mM stock in DMSO) are added with the ECHO acoustic liquid handler system (Beckman Coulter), including DMSO controls. Plates are incubated for 120 h, and cell viability is measured using CellTiter-Glo luminescent cell viability reagent (Promega product code G7570). Viability (stated as percent of control) is defined as relative luminescence units RLU of each well divided by the RLU of cells in DMSO controls. IC50 values are determined from viability measurements by non-linear regression using a four-parameter model.

[4] = system: KRAS G12V-dependent Ba/F3 cells; assay: Ba/F3 proliferation assay, KRAS G12V; format: cell-based; details: Mus musculus, BaF3, 72 h, AlamarBlue;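 note: proliferation IC50 in KRAS G12V-dependent Ba/F3 cells read by AlamarBlue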
Method: as §1, §2

[5] = assay 2, CTG, read-out: H358 (assay 2) IC50
[6] = assay 1, CTG, read-out: H358 (assay 1) IC50

| SMILES | IC50 [1] [nM] | HLM QH [2] [%] | IC50 [3] [nM] | IC50 (NCI-H358 cells; [5]) [nM] | IC50 (LOVO cells) [nM] | IC50 [4] [nM] | IC50 (NCI-H358 cells; [6]) [nM] |
| --- | --- | --- | --- | --- | --- | --- | --- |
| C[C@H](Oc1cc(-n2cc(Cn3cncn3)nn2)nc(-c2noc3c2CCC[C@@]32CCCc3sc(N)c(C#N)c32)n1)[C@@H]1CCCN1C [II-124] | 9 | 37 | 58 | 114 | 128 | 12 |  |
| C[C@H](Oc1cc(N2CCNC[C@@]23CCOC3)nc(-c2noc3c2CCC[C@@]32CCCc3sc(N)c(C#N)c32)n1)[C@@H]1CCCN1C [II-51] | 314 | 37 | 37 | 3360 | 772 | 693 |  |
| C[C@H](Oc1cc(-n2cnc3cccnc32)nc(-c2noc3c2CCC[C@@]32CCCc3sc(N)c(C#N)c32)n1)[C@@H]1CCCN1C [II-65] | 97 | <24 | 122 | 3220 | 289 | 40 |  |
| C[C@H]1CN(C)CCCN1c1cc(N2CCN(C)CC2)nc(-c2onc3c2CCC[C@@]32CCCc3sc(N)c(C#N)c32)n1 [I-7] | 608 | <24 | 190 |  | 2810 |  |  |
| C[C@H](Oc1cc(N2CCc3cccnc32)nc(-c2noc3c2CCC[C@@]32CCCc3sc(N)c(C#N)c32)n1)[C@@H]1CCCN1C [II-90] | 157 | <24 | 397 | 3250 | 735 | 115 |  |
| C[C@H](Oc1cc(-n2cccc3cnnc2-3)nc(-c2noc3c2CCC[C@@]32CCCc3sc(N)c(C#N)c32)n1)[C@@H]1CCCN1C [II-92] | 47 | <24 | 120 | 3400 | 467 | 27 |  |
| C[C@H](Oc1cc(N2CCN3CCC3C2)nc(-c2onc3c2CCC[C@@]32CCCc3sc(N)c(C#N)c32)n1)[C@@H]1CCCN1C (stereo partly drawn) [I-9] | 264 | <24 | 92 | 1310 | 649 | 496 |  |
| C[C@H](Oc1cc(-n2ccncc2=O)nc(-c2noc3c2CCC[C@@]32CCCc3sc(N)c(C#N)c32)n1)[C@@H]1CCCN1C [II-116] | 6 | 75 | 30 |  | 8 | 8 |  |
| C[C@H](Oc1cc(-c2ccn(C3COC3)n2)nc(-c2noc3c2CCC[C@@]32CCCc3sc(N)c(C#N)c32)n1)[C@@H]1C[C@H](F)CN1C [II-83] | 15 | 72 | 33 |  | 2200 | 18 |  |

Continued, values first:

| IC50 [1] [nM] | HLM QH [2] [%] | IC50 [3] [nM] | IC50 (NCI-H358 cells; [5]) [nM] | IC50 (LOVO cells) [nM] | IC50 [4] [nM] | IC50 (NCI-H358 cells; [6]) [nM] | SMILES |
| --- | --- | --- | --- | --- | --- | --- | --- |
| 29 | <24 | 131 |  |  | 34 |  | C[C@H](Oc1cc(-c2cn(C3CCOCC3)nn2)nc(-c2noc3c2CCC[C@@]32CCCc3sc(N)c(C#N)c32)n1)[C@@H]1CCCN1C [II-115] |
| 9 | 27 | 11 |  | 96 | 5 | 36 | C[C@H](Oc1cc(N2CCNC2=O)nc(-c2noc3c2CCC[C@@]32CCCc3sc(N)c(C#N)c32)n1)[C@@H]1CCCN1C [II-64] |
| 19 | 28 | 56 |  | 83 | 52 |  | C[C@H](Oc1cc(-c2cn(C3COC3)nn2)nc(-c2noc3c2CCC[C@@]32CCCc3sc(N)c(C#N)c32)n1)[C@@H]1CCCN1C [II-100] |
| 36 | <24 | 79 | > 25000 | 286 | 17 |  | C[C@H](Oc1cc(-c2ccn(-c3ccsc3)n2)nc(-c2noc3c2CCC[C@@]32CCCc3sc(N)c(C#N)c32)n1)[C@@H]1CCCN1C [II-84] |
| 21 | 30 | 41 |  | 561 | 10 |  | C[C@H](Oc1cc(-c2cncs2)nc(-c2noc3c2CCC[C@@]32CCCc3sc(N)c(C#N)c32)n1)[C@@H]1CCCN1C [II-80] |
| 14 | 34 | 28 | 9 | 39 | 11 | 51 | C[C@H](Oc1cc(N2CCOC3(COC3)C2)nc(-c2noc3c2CCC[C@@]32CCCc3sc(N)c(C#N)c32)n1)[C@@H]1CCCN1C [II-77] |
| 4 | 51 | 14 |  | 76 | 4 |  | C[C@H](Oc1cc(-n2ccc(C#N)n2)nc(-c2noc3c2CCC[C@@]32CCCc3sc(N)c(C#N)c32)n1)[C@@H]1CCCN1C [II-102] |
| 16 | 44 | 43 | 872 | 136 | 45 |  | C[C@H](Oc1cc(-n2ccnc2Cl)nc(-c2noc3c2CCC[C@@]32CCCc3sc(N)c(C#N)c32)n1)[C@@H]1CCCN1C [II-93] |
| 22 | 41 | 39 | 9 | 55 | 21 |  | C[C@H](Oc1cc(N2CCCC3(COC3)C2)nc(-c2noc3c2CCC[C@@]32CCCc3sc(N)c(C#N)c32)n1)[C@@H]1CCCN1C [II-72] |
| 47 | <24 | 55 | 1420 | 276 | 38 |  | C[C@H](Oc1cc(N2CCOC3(CC3)C2)nc(-c2noc3c2CCC[C@@]32CCCc3sc(N)c(C#N)c32)n1)[C@@H]1CCCN1C [II-61] |
| 24 | 45 | 45 |  | 106 | 18 |  | Cc1nccn1-c1cc(O[C@@H](C)[C@@H]2CCCN2C)nc(-c2noc3c2CCC[C@@]32CCCc3sc(N)c(C#N)c32)n1 [II-79] |
| 51 | 31 | 155 | 195 | 1020 | 28 |  | C[C@H](Oc1cc(-c2ccc(N)nc2)nc(-c2noc3c2CCC[C@@]32CCCc3sc(N)c(C#N)c32)n1)[C@@H]1CCCN1C [II-101] |

Reference: US20240174690A1, “ANNULATED 2-AMINO-3-CYANO THIOPHENES AND DERIVATIVES FOR THE TREATMENT OF CANCER” (BOEHRINGER INGELHEIM INTERNATIONAL GMBH, priority 2021, published 2024)
